Measured values published in patent publication US20260132132A1, “3A,4,5,6-TETRAHYDRO-1 H-PYRAZOLO[3,4-C]PYRIDIN-7(7AH)-ONE DERIVATIVES AS FACTOR XIIA INHIBITORS” (KALVISTA PHARMACEUTICALS LIMITED, priority 2022, published 2026).

Target: T1, Human Factor XIIa (hFXIIa) (Homo sapiens, UniProt P00748)
T1 construct: purchased Enzyme Research Laboratories
T1 sequence (P00748 373-615 limits assumed): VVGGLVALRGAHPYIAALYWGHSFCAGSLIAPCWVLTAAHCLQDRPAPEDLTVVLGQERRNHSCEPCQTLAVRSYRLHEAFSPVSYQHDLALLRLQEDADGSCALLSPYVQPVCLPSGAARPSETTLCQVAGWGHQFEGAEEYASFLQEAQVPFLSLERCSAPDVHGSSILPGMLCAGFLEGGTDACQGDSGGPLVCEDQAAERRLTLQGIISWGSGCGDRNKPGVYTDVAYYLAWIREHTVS
T1 sequence (P00748 20-372 partner limits assumed): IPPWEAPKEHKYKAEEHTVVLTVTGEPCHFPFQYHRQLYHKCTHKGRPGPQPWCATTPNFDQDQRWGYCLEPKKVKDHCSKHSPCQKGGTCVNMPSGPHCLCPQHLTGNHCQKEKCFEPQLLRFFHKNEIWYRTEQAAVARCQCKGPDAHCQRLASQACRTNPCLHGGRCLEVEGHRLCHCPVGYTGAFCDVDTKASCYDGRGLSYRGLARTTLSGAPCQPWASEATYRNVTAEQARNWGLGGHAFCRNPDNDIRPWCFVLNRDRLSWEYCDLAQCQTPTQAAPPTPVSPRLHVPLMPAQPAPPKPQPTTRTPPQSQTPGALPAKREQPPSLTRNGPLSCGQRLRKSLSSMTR
Assay: Determination of Human Factor XIIa (hFXIIa) inhibition, fluorogenic substrate IC50 assay
Assay type: biochemical
Conditions: fluorogenic substrate H-DPro-Phe-Arg-AFC at Km, 25° C., read-out: Human FXIIa IC50
Description: Determination of Human Factor XIIa (hFXIIa) inhibition
The Km for the cleavage of the substrate by hFXIIa was determined by standard transformation of the Michaelis-Menten equation, with subsequent inhibition assays performed at substrate Km concentration.

| IC50 | Compound |
| --- | --- |
| 0.1 to 0.3 µM | O=C(NCC1CC1)c1nn(-c2cccc(Cl)c2)c2c1CCN(c1ccc3c(c1)C(=O)N(CCO)CCO3)C2=O [Example 1289, 1-(3-chlorophenyl)-N-(cyclopropylmethyl)-6-(4-(2-hydroxyethyl)-5-oxo-2,3,4,5-tetrahydrobenzo[f][1,4]oxazepin-7-yl)-7-oxo-4,5,6,7-tetrahydro-1H-pyrazolo[3,4-c]pyridine-3-carboxamide] |
| 0.1 to 0.3 µM | Cc1cc(CNC(=O)c2nn(-c3cccc(Cl)c3)c3c2CCN(c2ccc4c(c2)C(=O)N(C2COC2)CC4)C3=O)nn1C [Example 1290, 1-(3-chlorophenyl)-N-((1,5-dimethyl-1H-pyrazol-3-yl)methyl)-6-(2-(oxetan-3-yl)-1-oxo-1,2,3,4-tetrahydroisoquinolin-7-yl)-7-oxo-4,5,6,7-tetrahydro-1H-pyrazolo[3,4-c]pyridine-3-carboxamide] |
| 0.3 to 1 µM | O=C(NCC1CC1)c1nn(-c2cccc(Cl)c2)c2c1CCN(c1ccc3c(c1)C(=O)N(CC1CCCO1)CC3)C2=O (centres unmarked) [Example 1292, 1-(3-chlorophenyl)-N-(cyclopropylmethyl)-7-oxo-6-(1-oxo-2-((tetrahydrofuran-2-yl)methyl)-1,2,3,4-tetrahydroisoquinolin-7-yl)-4,5,6,7-tetrahydro-1H-pyrazolo[3,4-c]pyridine-3-carboxamide] |
| 0.1 to 0.3 µM | Cc1cc(CNC(=O)c2nn(-c3cccc(Cl)c3)c3c2CCN(c2ccc4c(c2)C(=O)N(CC2CCCO2)CC4)C3=O)nn1C (centres unmarked) [Example 1293, 1-(3-chlorophenyl)-N-((1,5-dimethyl-1H-pyrazol-3-yl)methyl)-7-oxo-6-(1-oxo-2-((tetrahydrofuran-2-yl)methyl)-1,2,3,4-tetrahydroisoquinolin-7-yl)-4,5,6,7-tetrahydro-1H-pyrazolo[3,4-c]pyridine-3-carboxamide] |
| 0.1 to 0.3 µM | O=C(NCC1CC1)c1nn(-c2cccc(Cl)c2)c2c1CCN(c1ccc3c(c1)C(=O)N(CCO)CCC3)C2=O [Example 1294, 1-(3-chlorophenyl)-N-(cyclopropylmethyl)-6-(2-(2-hydroxyethyl)-1-oxo-2,3,4,5-tetrahydro-1H-benzo[c]azepin-8-yl)-7-oxo-4,5,6,7-tetrahydro-1H-pyrazolo[3,4-c]pyridine-3-carboxamide] |
| 10 to 40 µM | CN(C)C(=O)c1csc(N2CCc3c(C(=O)NCC4CC4)nn(-c4cccc(Cl)c4)c3C2=O)c1 [Example 1295, 1-(3-chlorophenyl)-N-(cyclopropylmethyl)-6-(4-(dimethylcarbamoyl)thiophen-2-yl)-7-oxo-4,5,6,7-tetrahydro-1H-pyrazolo[3,4-c]pyridine-3-carboxamide] |
| 0.1 to 0.3 µM | CC(C)n1ccc(CNC(=O)c2nn(-c3cccc(Cl)c3)c3c2CCN(c2ccc4c(c2)C(=O)N(C)CC4)C3=O)n1 [Example 1296, 1-(3-chlorophenyl)-N-((1-isopropyl-1H-pyrazol-3-yl)methyl)-6-(2-methyl-1-oxo-1,2,3,4-tetrahydroisoquinolin-7-yl)-7-oxo-4,5,6,7-tetrahydro-1H-pyrazolo[3,4-c]pyridine-3-carboxamide] |
| 0.3 to 1 µM | CCNC(=O)c1nn(-c2cccc(Cl)c2)c2c1CCN(c1ccc3c(c1)C(=O)N(C)CC3)C2=O [Example 1297, 1-(3-chlorophenyl)-N-ethyl-6-(2-methyl-1-oxo-1,2,3,4-tetrahydroisoquinolin-7-yl)-7-oxo-4,5,6,7-tetrahydro-1H-pyrazolo[3,4-c]pyridine-3-carboxamide] |
| 3 to 10 µM | CN(C)C(=O)c1cnnc(N2CCc3c(C(=O)NCC4CC4)nn(-c4cccc(Cl)c4)c3C2=O)c1 [Example 1298, 1-(3-chlorophenyl)-N-(cyclopropylmethyl)-6-(5-(dimethylcarbamoyl)pyridazin-3-yl)-7-oxo-4,5,6,7-tetrahydro-1H-pyrazolo[3,4-c]pyridine-3-carboxamide] |
| 3 to 10 µM | O=C(NCC1CC1)c1nn(-c2cccc(Cl)c2)c2c1CCN(c1ccc3c(c1)CN(CCO)CC3(F)F)C2=O [Example 1300, 1-(3-chlorophenyl)-N-(cyclopropylmethyl)-6-(4,4-difluoro-2-(2-hydroxyethyl)-1,2,3,4-tetrahydroisoquinolin-7-yl)-7-oxo-4,5,6,7-tetrahydro-1H-pyrazolo[3,4-c]pyridine-3-carboxamide] |
| 1 to 3 µM | CN1CCc2ncc(N3CCc4c(C(=O)NCC5CC5)nn(-c5cccc(Cl)c5)c4C3=O)cc2C1=O [Example 1301, 1-(3-chlorophenyl)-N-(cyclopropylmethyl)-6-(6-methyl-5-oxo-5,6,7,8-tetrahydro-1,6-naphthyridin-3-yl)-7-oxo-4,5,6,7-tetrahydro-1H-pyrazolo[3,4-c]pyridine-3-carboxamide] |
| 0.3 to 1 µM | Cc1ccncc1CNC(=O)c1nn(-c2cccc(Cl)c2)c2c1CCN(c1cnc3c(c1)C(=O)N(C)CC3)C2=O [Example 1302, 1-(3-chlorophenyl)-6-(6-methyl-5-oxo-5,6,7,8-tetrahydro-1,6-naphthyridin-3-yl)-N-((4-methylpyridin-3-yl)methyl)-7-oxo-4,5,6,7-tetrahydro-1H-pyrazolo[3,4-c]pyridine-3-carboxamide] |
| 0.3 to 1 µM | Cc1cc(CNC(=O)c2nn(-c3cccc(Cl)c3)c3c2CCN(c2cnc4c(c2)C(=O)N(C)CC4)C3=O)nn1C [Example 1303, 1-(3-chlorophenyl)-N-((1,5-dimethyl-1H-pyrazol-3-yl)methyl)-6-(6-methyl-5-oxo-5,6,7,8-tetrahydro-1,6-naphthyridin-3-yl)-7-oxo-4,5,6,7-tetrahydro-1H-pyrazolo[3,4-c]pyridine-3-carboxamide] |
| 3 to 10 µM | COCCN(C)C(=O)c1cccc(N2CCc3c(C(=O)NCC4CC4)nn(-c4cccc(Cl)c4)c3C2=O)c1 [Example 1311, 1-(3-chlorophenyl)-N-(cyclopropylmethyl)-6-(3-((2-methoxyethyl)(methyl)carbamoyl)phenyl)-7-oxo-4,5,6,7-tetrahydro-1H-pyrazolo[3,4-c]pyridine-3-carboxamide] |
| 3 to 10 µM | CN(CCO)C(=O)c1cccc(N2CCc3c(C(=O)NCC4CC4)nn(-c4cccc(Cl)c4)c3C2=O)c1 [Example 1312, 1-(3-chlorophenyl)-N-(cyclopropylmethyl)-6-(3-((2-hydroxyethyl)(methyl)carbamoyl)phenyl)-7-oxo-4,5,6,7-tetrahydro-1H-pyrazolo[3,4-c]pyridine-3-carboxamide] |
| 3 to 10 µM | O=C(NCC1CC1)c1nn(-c2cccc(Cl)c2)c2c1CCN(c1cccc(N3CCOCC3=O)c1)C2=O [Example 1313, 1-(3-chlorophenyl)-N-(cyclopropylmethyl)-7-oxo-6-(3-(3-oxomorpholino)phenyl)-4,5,6,7-tetrahydro-1H-pyrazolo[3,4-c]pyridine-3-carboxamide] |
| 10 to 40 µM | O=C(NCC1CC1)c1nn(-c2cccc(Cl)c2)c2c1CCN(c1cccc(CN3CCOC3=O)c1)C2=O [Example 1316, 1-(3-chlorophenyl)-N-(cyclopropylmethyl)-7-oxo-6-(3-((2-oxooxazolidin-3-yl)methyl)phenyl)-4,5,6,7-tetrahydro-1H-pyrazolo[3,4-c]pyridine-3-carboxamide] |
| 10 to 40 µM | CCOC(=O)c1nn(-c2cccc(Cl)c2)c2c1CCN(c1cccc(CN(C)C(=O)CO)c1)C2=O [Example 1322, ethyl 1-(3-chlorophenyl)-6-(3-((2-hydroxy-N-methylacetamido)methyl)phenyl)-7-oxo-4,5,6,7-tetrahydro-1H-pyrazolo[3,4-c]pyridine-3-carboxylate] |
| 1 to 3 µM | CCOC(=O)c1nn(-c2cccc(Cl)c2)c2c1CCN(c1cccc(N3CCCC3=O)c1)C2=O [Example 1323, ethyl 1-(3-chlorophenyl)-7-oxo-6-(3-(2-oxopyrrolidin-1-yl)phenyl)-4,5,6,7-tetrahydro-1H-pyrazolo[3,4-c]pyridine-3-carboxylate] |
| 1 to 3 µM | CCOC(=O)c1nn(-c2cccc(Cl)c2)c2c1CCN(c1ccc(OC)c(C(=O)N(C)C)c1)C2=O [Example 1324, ethyl 1-(3-chlorophenyl)-6-(3-(dimethylcarbamoyl)-4-methoxyphenyl)-7-oxo-4,5,6,7-tetrahydro-1H-pyrazolo[3,4-c]pyridine-3-carboxylate] |
| 10 to 40 µM | CCOC(=O)c1nn(-c2cccc(Cl)c2)c2c1CCN(c1cccc(N3CC(C(F)(F)F)CC3=O)c1)C2=O (centres unmarked) [Example 1405, ethyl 1-(3-chlorophenyl)-7-oxo-6-(3-(2-oxo-4-(trifluoromethyl)pyrrolidin-1-yl)phenyl)-4,5,6,7-tetrahydro-1H-pyrazolo[3,4-c]pyridine-3-carboxylate] |
| 0.1 to 0.3 µM | CN1CCc2ccc(N3CCc4c(C(=O)NC56CC(O)(C5)C6)nn(-c5cccc(Cl)c5)c4C3=O)cc2C1 [Example 1437, 1-(3-chlorophenyl)-N-(3-hydroxybicyclo[1.1.1]pentan-1-yl)-6-(2-methyl-1,2,3,4-tetrahydroisoquinolin-7-yl)-7-oxo-4,5,6,7-tetrahydro-1H-pyrazolo[3,4-c]pyridine-3-carboxamide] |
| 0.01 to 0.1 µM | CN1CCc2ccc(N3CCc4c(C(=O)N[C@H](CO)c5ccccc5)nn(-c5cccc(Cl)c5F)c4C3=O)cc2C1 [Example 2001, (S)-1-(3-chloro-2-fluorophenyl)-N-(2-hydroxy-1-phenylethyl)-6-(2-methyl-1,2,3,4-tetrahydroisoquinolin-7-yl)-7-oxo-4,5,6,7-tetrahydro-1H-pyrazolo[3,4-c]pyridine-3-carboxamide] |
